# From ChEMBL document CHEMBL1133062, “The synthesis and in vitro cytotoxic studies of novel bis-naphthalimidopropyl polyamine derivatives” (2000)
# What was measured:
# Type in all cases: functional
# 786-0 = assay: The compound was tested for its cytotoxic activity against the following renal cancer cell lines 786-0; conditions: Homo sapiens
# Breast carcinoma cell = assay: The compound was tested for its growth inhibitory activity against breast cancer cell line; conditions: Homo sapiens
# CNS carcinoma cell = assay: The compound was tested for its growth inhibitory activity against CNS cancer cell line; conditions: Homo sapiens
# Colon carcinoma cell = assay: The compound was tested for its growth inhibitory activity against colon cancer cell line; conditions: Homo sapiens
# EKVX = assay: The compound was tested for its cytotoxic activity against the following non small cell lung cancer cell lines EKVX; conditions: Homo sapiens
# HCT-15 = assay: The compound was tested for its cytotoxic activity against the following colon cancer cell lines HCT-15; conditions: Homo sapiens
# HL-60 = assay: The compound was tested for its growth inhibitory activity against […] cancer cell line HL60-TB; conditions: Homo sapiens
# Hs-578T = assay: The compound was tested for its cytotoxic activity against the following breast cancer cell lines HS 578T; conditions: Homo sapiens
# IGROV-1 = assay: The compound was tested for its cytotoxic activity against the following ovarian cancer cell lines IGROVI; conditions: Homo sapiens
# K562 = assay: The compound was tested for its cytotoxicity against the following leukemia cell line K-562; conditions: Homo sapiens
# [1] = test system: Panel leukemia (Carcinoma cell lines); assay: The compound was tested for its growth inhibitory activity against leukemia cell line; conditions: Homo sapiens
# Lung cancer cell line = assay: The compound was tested for its growth inhibitory activity against non small cell lung cancer cell line; conditions: Homo sapiens
# NCI-H522 = assay: The compound was tested for its cytotoxic activity against the following non small cell lung cancer cell lines NCI-H522; conditions: Homo sapiens
# NCI/ADR-RES = assay: The compound was tested for its cytotoxic activity against the following breast cancer cell lines NCI / ADR-RES; conditions: Homo sapiens
# Ovarian carcinoma cell = assay: The compound was tested for its growth inhibitory activity against ovarian cancer cell line; conditions: Homo sapiens
# Prostatic carcinoma cell = assay: The compound was tested for its growth inhibitory activity against prostate cancer cell line; conditions: Homo sapiens
# Renal cancer cell line = assay: The compound was tested for its growth inhibitory activity against renal cancer cell line; conditions: Homo sapiens
# SF-268 = assay: The compound was tested for its cytotoxic activity against the following CNS cancer cell lines SF-268; conditions: Homo sapiens
# SW-620 = assay: The compound was tested for its cytotoxic activity against the following colon cancer cell lines SW-620; conditions: Homo sapiens
# SF-295 = assay: The compound was tested for its cytotoxic activity against the following CNS cancer cell lines SF-295; conditions: Homo sapiens
# SK-OV-3 = assay: The compound was tested for its cytotoxic activity against the following ovarian cancer cell lines SK-OV-3; conditions: Homo sapiens
# UO-31 = assay: The compound was tested for its cytotoxic activity against the following renal cancer cell lines UO-31; conditions: Homo sapiens
# [2] = Mean value for over all cell lines tested
# Melanoma cell = assay: The compound was tested for its growth inhibitory activity against melanoma, human cancer cell line
Structure (SMILES),GI50 (786-0) [nM],GI50 (Breast carcinoma cell) [nM],GI50 (CNS carcinoma cell) [nM],GI50 (Colon carcinoma cell) [nM],GI50 (EKVX) [nM],GI50 (HCT-15) [nM],GI50 (HL-60) [nM],GI50 (Hs-578T) [nM],GI50 (IGROV-1) [nM],GI50 (K562) [nM],GI50 [1] [nM],GI50 (Lung cancer cell line) [nM],GI50 (NCI-H522) [nM],GI50 (NCI/ADR-RES) [nM],GI50 (Ovarian carcinoma cell) [nM],GI50 (Prostatic carcinoma cell) [nM],GI50 (Renal cancer cell line) [nM],GI50 (SF-268) [nM],mean GI50 [2] [nM],GI50 (Melanoma cell) [nM],further results
Br.Br.Br.O=C1c2cccc3cccc(c23)C(=O)N1CCCNCCCCNCCCNCCCN1C(=O)c2cccc3cccc(c23)C1=O,185,3490,1160,2350,1050,10900,156,44,267,1170,250,580,30,19500,790,460,2490,111,1420,1170,GI50 (SW-620): 449 nM; GI50 (SF-295): 4780 nM; GI50 (SK-OV-3): 1310 nM; GI50 (UO-31): 10600 nM
Br.Br.Br.Br.O=C1c2cccc3cccc(c23)C(=O)N1CCCNCCCNCCCCNCCCNCCCN1C(=O)c2cccc3cccc(c23)C1=O,555,4490,4070,4230,4500,12800,33,630,856,3600,1430,3510,825,15100,6120,3460,7430,722,4310,4040,GI50 (SW-620): 1160 nM; GI50 (SF-295): 5350 nM; GI50 (SK-OV-3): 10800 nM; GI50 (UO-31): 10800 nM
Br.Br.O=C1c2cccc3cccc(c23)C(=O)N1CCCNCCCCNCCCN1C(=O)c2cccc3cccc(c23)C1=O,24,2260,290,590,1370,2660,222,65,82,12,80,530,13,13100,340,130,570,29,580,440,GI50 (SW-620): 37 nM; GI50 (SF-295): 488 nM; GI50 (SK-OV-3): 722 nM; GI50 (UO-31): 1910 nM
Br.Br.O=C1c2cccc3cccc(c23)C(=O)N1CCCNOCCONCCCN1C(=O)c2cccc3cccc(c23)C1=O,,77600,65900,73200,,,,,,,25700,72600,,,81000,77600,65400,,68600,78000,
